Where two headings read alike, the source gives them in different places.
Assays:
Adenovirus type 5 [1] = settings: examples using ginseng (Table 1); lung tissue of K18-ACE2 TG mice, oral, three days after infection; non-treated control = 100
Adenovirus type 5 [2] = assay type: cell-based; settings: examples using ginseng (Table 1); Vero-E6 cells, 100 μg/ml pretreatment 2 h, 50 pfu/well, 72 h; non-treated control = 100

Row | SMILES | Relative virus titer Adenovirus type 5 (Adenovirus type 5 [1]) | Relative virus titer Adenovirus type 5 (Adenovirus type 5 [2])
1 | C[C@]12CCC(=O)C=C1CC[C@@H]1[C@@H]2[C@@H](O)C[C@@]2(C)[C@H]1CC[C@]2(O)C(=O)CO [Comparative Example 5, Hydrocortisone] | 101 ± 1.9 | 103 ± 1.9
2 | C[C@]12C=CC(=O)C=C1CC[C@H]1[C@@H]3C[C@@H](O)[C@](O)(C(=O)CO)[C@@]3(C)C[C@H](O)[C@@]12F [Comparative Example 7, Triamcinolone] | 101 ± 1.9 | 102 ± 1.9
3 | C[C@]12C=CC(=O)C=C1CC[C@@H]1[C@@H]2[C@@H](O)C[C@@]2(C)[C@H]1CC[C@]2(O)C(=O)CO [Comparative Example 6, Prednisolone] | 102 ± 1.9 | 102 ± 1.9
4 | C[C@@H]1C[C@H]2[C@@H]3CCC4=CC(=O)C=C[C@]4(C)[C@@]3(F)[C@@H](O)C[C@]2(C)[C@@]1(O)C(=O)CO [Comparative Example 4, Dexamethasone] | 102 ± 1.9 | 102 ± 1.9
